What all share (assay type): biochemical
The target in test [1] is T1, Human Factor XIIa (hFXIIa) (Homo sapiens, UniProt P00748).
T1 construct: purchased Enzyme Research Laboratories
T1 sequence (P00748 373-615 limits assumed): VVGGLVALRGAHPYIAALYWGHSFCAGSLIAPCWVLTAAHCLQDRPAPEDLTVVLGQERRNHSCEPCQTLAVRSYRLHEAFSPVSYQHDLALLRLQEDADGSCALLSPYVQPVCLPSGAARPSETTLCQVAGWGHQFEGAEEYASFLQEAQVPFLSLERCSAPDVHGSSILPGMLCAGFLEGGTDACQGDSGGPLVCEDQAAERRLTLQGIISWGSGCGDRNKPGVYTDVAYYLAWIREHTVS
T1 sequence (P00748 20-372 partner limits assumed): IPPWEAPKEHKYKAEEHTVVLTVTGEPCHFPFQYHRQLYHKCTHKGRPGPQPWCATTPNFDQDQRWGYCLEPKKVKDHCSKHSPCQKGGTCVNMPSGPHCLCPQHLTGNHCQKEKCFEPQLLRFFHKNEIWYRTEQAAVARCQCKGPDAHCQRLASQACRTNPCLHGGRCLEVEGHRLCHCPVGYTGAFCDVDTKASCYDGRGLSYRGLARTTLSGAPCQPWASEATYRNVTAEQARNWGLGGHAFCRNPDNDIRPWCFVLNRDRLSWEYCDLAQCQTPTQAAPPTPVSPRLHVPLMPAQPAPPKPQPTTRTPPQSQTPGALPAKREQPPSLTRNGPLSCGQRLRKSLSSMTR
Nature of the test: Determination of Human Factor XIIa (hFXIIa) inhibition, fluorogenic substrate IC50 assay. The note with it: fluorogenic substrate H-DPro-Phe-Arg-AFC at Km, 25° C., read-out: Human FXIIa IC50. On the procedure: Determination of Human Factor XIIa (hFXIIa) inhibition
The Km for the cleavage of the substrate by hFXIIa was determined by standard transformation of the Michaelis-Menten equation, with subsequent inhibition assays performed at substrate Km concentration.

In the next test the target is FXa (Homo sapiens, UniProt P00742). Nature of the test: Related protease inhibition: FXa, fluorogenic substrate. The following applies: fluorogenic substrate at Km, 25° C., H1-H3 = % activity at 40 μM; for activity at 40 µM: read-out: IC50 (human FXa) nM. On the procedure:
(§1) Human serine protease enzyme Plasma Kallikrein, KLK1, FXa, Plasmin, Thrombin and Trypsin were assayed for enzymatic activity using an appropriate fluorogenic substrate at Km concentration, FXIa at fixed substrate concentration of 100 μM and various concentrations of the test compound.

A further test deals with Thrombin (Homo sapiens, UniProt P00734). Nature of the test: Related protease inhibition: Thrombin, fluorogenic substrate. The following applies: fluorogenic substrate at Km, 25° C., H1-H3 = % activity at 40 μM; for activity at 40 µM: read-out: IC50 (human thrombin) nM. The protocol: as §1

This is an account of results in US20260132132A1, “3A,4,5,6-TETRAHYDRO-1 H-PYRAZOLO[3,4-C]PYRIDIN-7(7AH)-ONE DERIVATIVES AS FACTOR XIIA INHIBITORS” (KALVISTA PHARMACEUTICALS LIMITED, priority 2022, published 2026).

SMILES strings stand for the structures.

FXa, sequence (P00742 235-488 limits assumed): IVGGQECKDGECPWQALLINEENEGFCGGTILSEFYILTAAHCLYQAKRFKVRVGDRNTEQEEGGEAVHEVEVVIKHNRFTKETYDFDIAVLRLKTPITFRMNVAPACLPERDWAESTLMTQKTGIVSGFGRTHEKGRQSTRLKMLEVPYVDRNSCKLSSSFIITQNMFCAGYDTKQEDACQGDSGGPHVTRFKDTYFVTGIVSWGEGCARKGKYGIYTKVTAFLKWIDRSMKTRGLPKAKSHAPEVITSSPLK
FXa, sequence (P00742 41-179 partner limits assumed): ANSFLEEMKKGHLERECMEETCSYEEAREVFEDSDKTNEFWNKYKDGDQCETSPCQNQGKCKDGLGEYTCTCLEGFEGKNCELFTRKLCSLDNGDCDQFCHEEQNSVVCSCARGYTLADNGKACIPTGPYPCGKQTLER

Take `CC(C)N1CCc2ccc(N3CCc4c(C(=O)NCC5CC5)nn(-c5cccc(Cl)c5)c4C3=O)cc2C1` [Example 1035, 1-(3-chlorophenyl)-N-(cyclopropylmethyl)-6-(2-isopropyl-1,2,3,4-tetrahydroisoquinolin-7-yl)-7-oxo-4,5,6,7-tetrahydro-1H-pyrazolo[3,4-c]pyridine-3-carboxamide]: the IC50 in test [1] is 0.1 to 0.3 µM; against FXa, 10 to 40 µM; against Thrombin, greater than 100 µM.
For `CN1CCc2ccc(N3CCc4c(C(=O)N[C@H]5COC[C@H]5O)nn(-c5cccc(Cl)c5)c4C3=O)cc2C1=O` [Example 1416, 1-(3-chlorophenyl)-N-((3S,4S)-4-hydroxytetrahydrofuran-3-yl)-6-(2-methyl-1-oxo-1,2,3,4-tetrahydroisoquinolin-7-yl)-7-oxo-4,5,6,7-tetrahydro-1H-pyrazolo[3,4-c]pyridine-3-carboxamide], the IC50 in test [1] lay within 0.1 to 0.3 µM. Moreover, the activity at 40 µM at FXa and on Thrombin was 20 to 80% each time.
In the case of `CN1CCc2ccc(N3CCc4c(C(=O)NCC5(O)CC5)nn(-c5cccc(Cl)c5)c4C3=O)cc2C1=O` [Example 1421, 1-(3-chlorophenyl)-N-((1-hydroxycyclopropyl)methyl)-6-(2-methyl-1-oxo-1,2,3,4-tetrahydroisoquinolin-7-yl)-7-oxo-4,5,6,7-tetrahydro-1H-pyrazolo[3,4-c]pyridine-3-carboxamide], the IC50 in test [1] was in the range of 0.3 to 1 µM. Further, the activity at 40 µM on FXa and at Thrombin was greater than 80% throughout.
On to `CCNC(=O)c1nn(-c2cccc(Cl)c2)c2c1CCN(c1cccc(N3C(=O)C[C@@H]4C[C@@H]43)c1)C2=O` (single isomer, unassigned) [Example 1408, 1-(3-Chlorophenyl)-N-ethyl-7-oxo-6-(3-((1S*,5S*)-3-oxo-2-azabicyclo[3.1.0]hexan-2-yl)phenyl)-4,5,6,7-tetrahydro-1H-pyrazolo[3,4-c]pyridine-3-carboxamide], for which the IC50 in test [1] is 0.3 to 1 µM; against FXa, 10 to 40 µM. In addition, at Thrombin, the activity at 40 µM lay within 20 to 80%.
`CCNC(=O)c1nn(-c2cc(C)cs2)c2c1CCN(c1ccc3c(c1)C(=O)N(C)CC3)C2=O` [Example 2045, N-ethyl-6-(2-methyl-1-oxo-1,2,3,4-tetrahydroisoquinolin-7-yl)-1-(4-methylthiophen-2-yl)-7-oxo-4,5,6,7-tetrahydro-1H-pyrazolo[3,4-c]pyridine-3-carboxamide]: in test [1], the IC50 was 3 to 10 µM. For the same compound, the activity at 40 µM on FXa and at Thrombin was 20 to 80% throughout.
For the compound `CN1CCc2ccc(N3CCc4c(C(=O)N[C@@H](CO)C5CC5)nn(-c5cccc(Cl)c5F)c4C3=O)cc2C1=O` [Example 2043, (R)-1-(3-chloro-2-fluorophenyl)-N-(1-cyclopropyl-2-hydroxyethyl)-6-(2-methyl-1-oxo-1,2,3,4-tetrahydroisoquinolin-7-yl)-7-oxo-4,5,6,7-tetrahydro-1H-pyrazolo[3,4-c]pyridine-3-carboxamide], the IC50 in test [1] fell in the range of 0.01 to 0.1 µM. The activity at 40 µM on FXa and at Thrombin was 20 to 80% each time.
In the case of `CCNC(=O)c1nn(-c2cccc(Cl)c2)c2c1CCN(c1cccc(N3CCOCC3=O)c1)C2=O` [Example 1426, 1-(3-chlorophenyl)-N-ethyl-7-oxo-6-(3-(3-oxomorpholino)phenyl)-4,5,6,7-tetrahydro-1H-pyrazolo[3,4-c]pyridine-3-carboxamide], the IC50 in test [1] was in the range of 10 to 40 µM. In addition, the activity at 40 µM at FXa and on Thrombin was 20 to 80% throughout.
As for `COCCNC(=O)c1nn(-c2cccc(Cl)c2)c2c1CCN(c1ccc3c(c1)C(=O)N(C)CC3)C2=O` [Example 1410, 1-(3-chlorophenyl)-N-(2-methoxyethyl)-6-(2-methyl-1-oxo-1,2,3,4-tetrahydroisoquinolin-7-yl)-7-oxo-4,5,6,7-tetrahydro-1H-pyrazolo[3,4-c]pyridine-3-carboxamide], in test [1], the 50% inhibitory concentration (IC50) is 0.3 to 1 µM. Further, the activity at 40 µM on FXa was 20 to 80%; at Thrombin, less than 20%.
`CN1CCc2ccc(N3CCc4c(C(=O)NCC5CCOCC5)nn(-c5cccc(Cl)c5)c4C3=O)cc2C1` [Example 1027, 1-(3-chlorophenyl)-6-(2-methyl-1,2,3,4-tetrahydroisoquinolin-7-yl)-7-oxo-N-((tetrahydro-2H-pyran-4-yl)methyl)-4,5,6,7-tetrahydro-1H-pyrazolo[3,4-c]pyridine-3-carboxamide]: the IC50 in test [1] was 0.3 to 1 µM; against FXa, 3 to 10 µM; against Thrombin, greater than 100 µM.
Turning to `CCNC(=O)c1nn(-c2cccc(Cl)c2)c2c1CCN(c1cccc(N3CC4(CC4)CC3=O)c1)C2=O` [Example 1389, 1-(3-chlorophenyl)-N-ethyl-7-oxo-6-(3-(6-oxo-5-azaspiro[2.4]heptan-5-yl)phenyl)-4,5,6,7-tetrahydro-1H-pyrazolo[3,4-c]pyridine-3-carboxamide], the IC50 in test [1] is 10 to 40 µM; against FXa, greater than 40 µM.
For `CCNC(=O)c1nn(-c2cccc(Cl)c2)c2c1CCN(c1ccc3c(c1)C(=O)N(CCO)[C@@H](C)CO3)C2=O` [Example 1381, (S)-1-(3-chlorophenyl)-N-ethyl-6-(4-(2-hydroxyethyl)-3-methyl-5-oxo-2,3,4,5-tetrahydrobenzo[f][1,4]oxazepin-7-yl)-7-oxo-4,5,6,7-tetrahydro-1H-pyrazolo[3,4-c]pyridine-3-carboxamide], the IC50 in test [1] is 1 to 3 µM; against FXa it was greater than 40 µM.
For the compound `C[C@@H](NC(=O)c1nn(-c2cccc(Cl)c2)c2c1CCN(c1ccc3c(c1)C(=O)N(C)CC3)C2=O)C(=O)O` [Example 1387, (1-(3-chlorophenyl)-6-(2-methyl-1-oxo-1,2,3,4-tetrahydroisoquinolin-7-yl)-7-oxo-4,5,6,7-tetrahydro-1H-pyrazolo[3,4-c]pyridine-3-carbonyl)-D-alanine], the IC50 in test [1] was in the range of 1 to 3 µM; on FXa it was 10 to 40 µM.
As to `Cc1cnccc1CNC(=O)c1nn(-c2cccc(Cl)c2)c2c1CCN(c1ccc3c(c1)C(=O)N(CCO)CC3)C2=O` [Example 1357, 1-(3-chlorophenyl)-6-(2-(2-hydroxyethyl)-1-oxo-1,2,3,4-tetrahydroisoquinolin-7-yl)-N-((3-methylpyridin-4-yl)methyl)-7-oxo-4,5,6,7-tetrahydro-1H-pyrazolo[3,4-c]pyridine-3-carboxamide], the results for the IC50 (in test [1]; at FXa) were 0.3 to 1 µM and greater than 40 µM, respectively.
On to `CCNC(=O)c1nn(-c2cccc(Cl)c2)c2c1CCN(c1ccc3c(c1)C(=O)N(C)CC(=O)N3C)C2=O` [Example 1375, 1-(3-chlorophenyl)-6-(1,4-dimethyl-2,5-dioxo-2,3,4,5-tetrahydro-1H-benzo[e][1,4]diazepin-7-yl)-N-ethyl-7-oxo-4,5,6,7-tetrahydro-1H-pyrazolo[3,4-c]pyridine-3-carboxamide], for which the IC50 in test [1] was 3 to 10 µM; on FXa, greater than 40 µM.
For the compound `O=C(NCC1CC1)c1nn(-c2cccc(Cl)c2)c2c1CCN(c1ccc3c(c1)CN(CC1CC1)CC3)C2=O` [Example 1036, 1-(3-chlorophenyl)-N-(cyclopropylmethyl)-6-(2-(cyclopropylmethyl)-1,2,3,4-tetrahydroisoquinolin-7-yl)-7-oxo-4,5,6,7-tetrahydro-1H-pyrazolo[3,4-c]pyridine-3-carboxamide], the values for the IC50 (in test [1]; on FXa) were 0.3 to 1 µM and greater than 40 µM, respectively.
In the same order, the values of `Cc1ccncc1CNC(=O)c1nn(-c2cccc(Cl)c2)c2c1CCN(c1cc3c(cc1F)CCN(CCO)C3)C2=O` [Example 1134, 1-(3-Chlorophenyl)-6-(6-fluoro-2-(2-hydroxyethyl)-1,2,3,4-tetrahydroisoquinolin-7-yl)-N-((4-methylpyridin-3-yl)methyl)-7-oxo-4,5,6,7-tetrahydro-1H-pyrazolo[3,4-c]pyridine-3-carboxamide] are 0.01 to 0.1 µM and 10 to 40 µM.
Take `Cc1ncccc1CNC(=O)c1nn(-c2cccc(Cl)c2)c2c1CCN(c1ccc3c(c1)C(=O)N(C)CC3)C2=O` [Example 1309, 1-(3-chlorophenyl)-6-(2-methyl-1-oxo-1,2,3,4-tetrahydroisoquinolin-7-yl)-N-((2-methylpyridin-3-yl)methyl)-7-oxo-4,5,6,7-tetrahydro-1H-pyrazolo[3,4-c]pyridine-3-carboxamide]: the half-maximal inhibitory concentration (IC50) in test [1] was 0.1 to 0.3 µM; at FXa, greater than 40 µM.
As to `CN1CCc2ccc(N3CCc4c(C(=O)NCc5ccccc5)nn(-c5cccc(Cl)c5)c4C3=O)cc2C1` [Example 1005, N-benzyl-1-(3-chlorophenyl)-6-(2-methyl-1,2,3,4-tetrahydroisoquinolin-7-yl)-7-oxo-4,5,6,7-tetrahydro-1H-pyrazolo[3,4-c]pyridine-3-carboxamide], the IC50 in test [1] is 0.01 to 0.1 µM; against FXa, 3 to 10 µM.

In general, IC50 refers to the concentration that inhibits the measured activity by half.
